Patent US6395467B1 (priority 1998, dated 2002)

How the values were obtained:
Human sperm = Human sperm freezing and thawing, motility; type: cell-based; conditions: 2 M, cryoprotectant not removed
Experimental: Human sperm was exposed to 2 M Veg solutes or 2 M glycerol near 0° C. using gradual addition methods, then frozen, thawed, and videotaped without removing the cryoprotectant.

[1] = cited from earlier work; for Q (moles of CPA per 10 moles of water): pure CPA at Cv
[2] = system: rabbit renal cortical slices; assay: Toxicity of cryoprotectant solutions to rabbit renal cortical slices (K/Na ratio after exposure, washout and 90 min at 25° C.); type: cell-based
Source text: FIGS. 1 and 2 display a reanalysis (performed in early July of 1998) of public information (Fahy, Levy, and Ali, Cryobiology 24: 196213, 1987) on the toxicity of several vitrification solutions of known composition. These vitrification solutions will vitrify at 1,000 atmospheres and contain either 6% polyvinyl pyrrolidone of relative molecular mass 40 kDa [PVP K30] or 6% polyethylene glycol [PEG 8000]. The data set is advantageous because all solutions analyzed are vitrifiable, the data set has low standard errors, and toxicity was convincingly dissociated from osmotic factors (see Fahy, Levy, and Ali, 1987, for discussion). In this example, viability was defined by the ratio of primarily intracellular potassium to intracellular sodium (K/Na ratio) after cryoprotectant washout and active metabolism for 90 min at the optimum temperature of 25° C. The test system was rabbit renal cortical slices.
[…] Each step is 20 min except for 1X step, which is 40 min. All steps done at 0° C.

[3] = Glass-forming tendency: concentration needed to vitrify (Cv), Q and qv*; type: physicochemical; conditions: for Moles of water/mole of CPA (10/Q): pure CPA at Cv; for qv* (Moles of water/mole of polar groups at Cv): pure CPA, Table 1
Source text: The qv* method for identifying useful cryoprotectant solutions based on this concentration scale is: to select at least one cryoprotectant whose qv* is below 2.0, include it in a mixture with other cryoprotectants, determine the Cv of the resulting mixture in the normal way (see, for example, Fahy et al, Cryobiology 21: 407-426, 1984), calculate q* at Cv (qv*) (note: the number of moles of water can be readily determined from the weight of a given volume of solution minus the number of grams of all solutes, i.e., from the number of grams of water per unit volume or per unit weight), compare the resulting qv* value to the qv* values of alternative cryoprotectant solutions, and selecting lower qv* value solutions in general preference to higher qv* solutions. qv* values can be estimated adequately from published Q values by estimating that the densities of all solution components as pure substances are unchanged by being in solution with other substances (the validity of a similar approach in deriving Q from % w/v concentrations is discussed in Fahy, in: Low Temperature Biotechnology: Emerging Applications and Engineering Contributions, J.J. McGrath and K. R. Diller, eds, ASME, 1988, pp. 113146.)
“Cv” is the concentration needed to vitrify 5-10 ml of solution at a cooling rate of about 10° C./min.
“qv*=[(#moles of water)/(mole]/[(# polar groups)/(mole cryoprotectant)] or
qv*=(#moles of water per unit volume or per unit mass of solution)/(# moles of polar groups on penetrating cryoprotectants per unit volume or unit mass of solution) at Cv”.

rabbit kidney slices = assay: Freezing of rabbit kidney slices to −130° C., K/Na ratio after freezing and thawing; type: cell-based; conditions: 30% w/v cryoprotectant, frozen to −130° C.
Experimental: A recent freezing experiment compared freezing of rabbit kidney slices to −130° C. in the presence of either 30% w/v DMSO or 30% w/v Veg solutes. The K/Na ratio after freezing and thawing in DMSO was 2.46+/−0.30, whereas the K/Na ratio after freezing and thawing in 30% w/v Veg solutes was 3.10+/−0.07 (p<0.05).

rat hepatocytes = assay: Rat hepatocytes in suspension, trypan blue dye exclusion after cryoprotectant exposure or freezing to −140° C.; type: cell-based; conditions: 10% v/v
Experimental: A recent freezing experiment compared freezing of rat hepatocytes in suspension to −140° C. in the presence of either 10% v/v DMSO or 10% v/v Veg solutes. Relative to the initial viability, 98% of the Veg-treated, non-frozen hepatocytes were able to exclude trypan blue dye, whereas only 70% of the DMSO-treated, non-frozen hepatocytes retained their dye exclusion capability after addition and removal of DMSO alone. After freezing and thawing, 65% of the initial number of freshly isolated hepatocytes remained capable of excluding trypan blue dye, whereas only 60% of frozen-thawed hepatocytes retained this ability when frozen with DMSO.

Compound | Q (moles of CPA per 10 moles of water) [1] | Moles of water/mole of CPA (10/Q) [3] | qv* (Moles of water/mole of polar groups at Cv) [3] | also measured
OCC(O)CO [glycerol] |  |  |  | sperm motility after freezing and thawing (Human sperm): largely quiescent upon thawing
NC=O [formamide] |  |  |  | vitrification of aqueous solutions ([1]; agent alone): do not vitrify; maximum concentration associated with minimal injury ([2]; in D(1)F-EG mixtures, 57-58% w/v total): about 14%
CC(O)CO (centres unmarked) [1,2-propanediol] |  |  |  | qv* ([3]; pure agent, b117): about 2.6
OCCO [Ethylene glycol] | 3.3 moles of CPA per 10 moles of water | 3.0 | 1.4 | recovery (viability, FIG. 3) ([2]; at Cv, EuroCollins vehicle): less than 50%; concentrations not overtly harmful ([2]; in D(1)F-EG mixtures): ≤ 30 % w/v
CC(N)=O [Acetamide] | 4.1 moles of CPA per 10 moles of water | 2.4 | 1.2 | 
OCCCO [1,3-propanediol] | 3.1 moles of CPA per 10 moles of water | 3.2 | 1.6 | 
CC(=O)CO [Acetol, hydroxyacetone] | 3.6 moles of CPA per 10 moles of water | 2.8 | 1.4 | 
C[S+](C)[O-] [DMSO, dimethyl sulfoxide] |  |  |  | K/Na ratio after freezing and thawing (rabbit kidney slices): 2.46+/−0.30; hepatocytes capable of excluding trypan blue dye, of the initial number of freshly isolated hepatocytes (rat hepatocytes; after freezing to −140° C. and thawing): 60%; hepatocytes able to exclude trypan blue dye, relative to the initial viability (rat hepatocytes; non-frozen, after addition and removal): 70%
CNC=O [N-Methyl-Formamide] | 3.9 moles of CPA per 10 moles of water | 2.6 | 1.3 | 
O=C(CO)CO [1,3-dihydroxyacetone] |  | 5 | 1.7 | 
